According to patent US12239648B2, “KIF5B-RET fusion molecules and uses thereof” (Foundation Medicine, Inc., priority 2011, dated 2025):

How the values were obtained:
[1] = tested on: Thyroid cancers and cell lines harboring PTC-RET translocations; conditions: PTC/RET translocations overexpressing the RET kinase domain; Henderson 2008, Carlomagno 2006; cited from earlier work
[2] = tested on: KIF5B-RET Ba/F3 cells; assay: Effects of drugs on Ba/F3 cells transfected with KIF5B-RET fusion constructs (IL-3 independent growth); assay type: cell-based; conditions: Ba/F3 cells expressing KIF5B-RET, FIG. 8
Text: FIG. 8 is a graph showing the effects of different drugs on Ba/F3 cells transfected with KIF5B-RET fusion constructs.

Structure (SMILES): CNC(=O)c1cc(Oc2ccc(NC(=O)Nc3ccc(Cl)c(C(F)(F)F)c3)cc2)ccn1 [sorafenib]
- sensitivity of thyroid cancer and cell lines harboring PTC/RET translocations [1]: sensitive
- sensitivity of KIF5B-RET transformed Ba/F3 cells to drug [2]: sensitive
